pIC50: −log10 of the molar value.
Key:
XIAP-BIR3 = target: T1, XIAP-BIR3 (Homo sapiens, UniProt P98170); test: XIAP-BIR3 fluorescence polarization binding assay; settings: FP, probe AbuRPFK-5FAM (SM5F) 5 nM, XIAP-BIR3 40 nM, 60 min at 25° C.
T1 construct: XIAP-BIR3; purchased Reaction Biology APT-11-374
How it was run: (§1)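 Fluorescence polarization competition using 5-carboxyfluorescein-labelled peptide probe AbuRPFK-5FAM; protein and compound preincubated 15 min, probe added, then 60 min at 25° C.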

cIAP1-BIR3 = target: T2, cIAP1-BIR3 (Homo sapiens, UniProt Q13490); test: cIAP1-BIR3 fluorescence polarization binding assay; settings: FP, probe AbuRPFK-5FAM (SM5F) 5 nM, cIAP1-BIR3 15 nM, 60 min at 25° C.
T2 construct: cIAP1-BIR3; purchased Reaction Biology APT-11-370
How it was run: as §1

cIAP2-BIR3 = target: T3, cIAP2-BIR3 (Homo sapiens, UniProt Q13489); test: cIAP2-BIR3 fluorescence polarization binding assay; settings: FP, probe AbuRPFK-5FAM (SM5F) 5 nM, cIAP2-BIR3 80 nM, 60 min at 25° C.
T3 construct: cIAP2-BIR3; purchased Reaction Biology APT-11-372
How it was run: as §1

T2 sequence (Q13490 253-363 limits assumed): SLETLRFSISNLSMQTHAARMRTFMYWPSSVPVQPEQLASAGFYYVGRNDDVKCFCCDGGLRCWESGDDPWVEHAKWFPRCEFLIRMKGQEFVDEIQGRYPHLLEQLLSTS
T1 sequence (P98170 241-356 limits assumed): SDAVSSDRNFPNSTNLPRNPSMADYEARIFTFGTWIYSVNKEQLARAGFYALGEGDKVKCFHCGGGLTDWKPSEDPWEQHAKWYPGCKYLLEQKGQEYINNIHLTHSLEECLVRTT
T3 sequence (Q13489 238-349 limits assumed): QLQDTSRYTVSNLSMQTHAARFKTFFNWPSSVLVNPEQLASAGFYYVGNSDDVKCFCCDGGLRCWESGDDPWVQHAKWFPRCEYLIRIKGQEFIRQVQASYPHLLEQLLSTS

Structure (SMILES)	pIC50 (XIAP-BIR3)	pIC50 (cIAP1-BIR3)	pIC50 (cIAP2-BIR3)
CN[C@@H](C)C(=O)N[C@H](C(=O)N1CCC[C@H]1C(=O)N[C@@H]1CCc2c(OCCOCCOc3cccc4c3CC[C@H]4NC(=O)[C@@H]3CCCN3C(=O)[C@@H](NC(=O)[C@H](C)NC)C3CCCCC3)cccc21)C1CCCCC1 [Compound II-F, (2S)-1-[(2S)-2-cyclohexyl-2-[(2S)-2-(methylamino)propanamido]acetyl]-N-[(1R)-4-[2-(2-[[(1R)-1-[(2S)-1-[(2S)-2-cyclohexyl-2-[(2S)-2-(methylamino)propanamido]acetyl]pyrrolidine-2-amido]-2,3-dihydro-1H-inden-4-yl]oxy]ethoxy)ethoxy]-2,3-dihydro-1H-inden-1-yl]pyrrolidine-2-carboxamide]	7.00 to 8.00	8.00 to 9.00	7.00 to 8.00
CN[C@@H](C)C(=O)N[C@H](C(=O)N1CCC[C@H]1C(=O)N[C@@H]1CCCc2c1cccc2N1CC2CN(c3cccc4c3CCC[C@H]4NC(=O)[C@@H]3CCCN3C(=O)[C@@H](NC(=O)[C@H](C)NC)C3CCCCC3)CC2C1)C1CCCCC1 (stereo partly drawn) [Compound VIII, (2S)-1-[(2S)-2-cyclohexyl-2-[(2S)-2-(methylamino)propanamido]acetyl]-N-[(1R)-5-[5-[(5R)-5-[(2S)-1-[(2S)-2-cyclohexyl-2-[(2S)-2-(methylamino)propanamido]acetyl]pyrrolidine-2-amido]-5,6,7,8-tetrahydronaphthalen-1-yl]-hexahydropyrrolo[3,4-c]pyrrol-2-yl]-1,2,3,4-tetrahydmnaphthalen-1-yl]pyrrolidine-2-carboxamide]	7.00 to 8.00	8.00 to 9.00	8.00 to 9.00
CN[C@@H](C)C(=O)N[C@H](C(=O)N1C[C@@H](O)C[C@H]1C(=O)N[C@@H]1CCCc2c(OCCCCCOc3cccc4c3CCC[C@H]4NC(=O)[C@@H]3C[C@H](O)CN3C(=O)[C@@H](NC(=O)[C@H](C)NC)C3CCCCC3)cccc21)C1CCCCC1 [Compound I-B, (2S,4S)-1-((S)-2-cyclohexyl-2-((S)-2-(methylamino)propanamido)acetyl)-N—((R)-5-((5-(((R)-5-((2S,4S)-1-((S)-2-cyclohexyl-2-((S)-2-(methylamino)propanamido)acetyl)-4-hydroxypyrrolidine-2-carboxamido)-5,6,7,8-tetrahydronaphthalen-1-yl)oxy)pentyl)oxy)-1,2,3,4-tetrahydronaphthalen-1-yl)-4-hydroxypyrrolidine-2-carboxamide]	6.00 to 7.00	8.00 to 9.00	7.00 to 8.00
CC[C@H](NC(=O)[C@H](C)NC)C(=O)N1CCC[C@H]1C(=O)N[C@@H]1CCCc2c(-c3ccc(-c4cccc5c4CCC[C@H]5NC(=O)[C@@H]4CCCN4C(=O)[C@H](CC)NC(=O)[C@H](C)NC)cc3)cccc21 [III-I, (2S)-1-[(2S)-2-[(2S)-2-(methylamino)propanamido]butanoy]l-N-[(1R)-5-[4-[(5R)-5-[(2S)-1-[(2S)-2-[(2S)-2-(methylamino)propanamido]butanoyl]pyrrolidine-2-amido]-5,6,7,8-tetrahydronaphthalen-1-yl]phenyl]-1,2,3,4-tetrahydronaphthalen-1-yl]pyrrolidine-2-carboxamide]	7.00 to 8.00	8.00 to 9.00	7.00 to 8.00
CN[C@@H](C)C(=O)N[C@H](C(=O)N1CCC[C@H]1C(=O)N[C@@H]1CCCc2c(-c3cccc4c3CCC[C@H]4NC(=O)[C@@H]3CCCN3C(=O)[C@@H](NC(=O)[C@H](C)NC)C(C)(C)C)cccc21)C(C)(C)C [Compound V-J, (2S)-1-[(2S)-3,3-dimethyl-2-[(2S)-2-(methylamino)propanamido]butanoyl]-N-[(5R,5′R)-5′-[(2S)-[(2S)-3,3-dimethyl-2-[(2S)-2-(methylamino)propanamido]butanoyl]pyrolidine-2-amido]-5H,5′ H,6H,6′H,7H,7′H,8H,8′ H-[1,1′-binaphthalen]-5-yl]pyrrolidine-2-carboxamide]	7.00 to 8.00	8.00 to 9.00	7.00 to 8.00
CC[C@H](NC(=O)[C@H](C)NC)C(=O)N1CCC[C@H]1C(=O)N[C@@H]1CCCc2c(Oc3cccc4c3CCC[C@H]4NC(=O)[C@@H]3CCCN3C(=O)[C@H](CC)NC(=O)[C@H](C)NC)cccc21 [Compound X-A]	7.00 to 8.00	8.00 to 9.00	7.00 to 8.00
CN[C@@H](C)C(=O)N[C@H](C(=O)N1CCC[C@H]1C(=O)N[C@@H]1CCCc2c(OCCCCCOc3cccc4c3CCC[C@H]4NC(=O)[C@@H]3CCCN3C(=O)[C@@H](NC(=O)[C@H](C)NC)C3CCOCC3)cccc21)C1CCOCC1 [Compound I-A, (S)-1-((S)-2-((S)-2-(methylamino)propanamido)-2-(tetrahydro-2H-pyran-4-yl)acetyl)-N—((R)-5-((5-(((R)-5-((S)-1-((S)-2-((S)-2-(methylamino)propanamido)-2-(tetrahydro-2H-pyran-4-yl)acetyl)pyrrolidine-2-carboxamido)-5,6,7,8-tetrahydronaphthalen-1-yl)oxy)pentyl)oxy)-1,2,3,4-tetrahydmnaphthalen-1-yl)pyrrolidine-2-carboxamide]	7.00 to 8.00	8.00 to 9.00	8.00 to 9.00
CN[C@@H](C)C(=O)N[C@H](C(=O)N1CCC[C@H]1C(=O)N[C@@H]1CCCc2c(Oc3cccc4c3CCC[C@H]4NC(=O)[C@@H]3CCCN3C(=O)[C@@H](NC(=O)[C@H](C)NC)C(C)C)cccc21)C(C)C [Compound X-B, (S)-1-(Methyl-L-alanyl-L-valyl)-N—((R)-5-(((R)-5-((S)-1-(methyl-L-alanyl-L-valyl)pyrrolidine-2-carboxamido)-5,6,7,8-tetrahydronaphthalen-1-yl)oxy)-1,2,3,4-tetrahydronaphthalen-1-yl)pyrrolidine-2-carboxamide]	7.00 to 8.00	8.00 to 9.00	7.00 to 8.00
CN[C@@H](C)C(=O)N[C@H](C(=O)N1CCC[C@H]1C(=O)N[C@@H]1CCCc2c(OCCc3ccc(CCOc4cccc5c4CCC[C@H]5NC(=O)[C@@H]4CCCN4C(=O)[C@@H](NC(=O)[C@H](C)NC)C4CCCCC4)cc3)cccc21)C1CCCCC1 [Compound IV, (2S)-1-[(2S)-2-Cyclohexyl-2-[(2S)-2-(methylamino)propanamido]acetyl]-N-[(1R)-5-[2-[4-(2-[[(5R)-5-[(2S)-1-[(2S)-2-cyclohexyl-2-[(2S)-2-(methylamino)propanamido]acetyl]pyrrolidine-2-amido]-5,6,7,8-tetrahydronaphthalen-1-yl]oxy]ethyl)phenyl]ethoxy]-1,2,3,4-tetrahydronaphthalen-1-yl]pyrrolidine-2-carboxamide]	6.00 to 7.00	7.00 to 8.00	7.00 to 8.00
CN[C@@H](C)C(=O)N[C@H](C(=O)N1CCC[C@H]1C(=O)N[C@@H]1CCCc2cc(-c3ccc(-c4ccc5c(c4)CCC[C@H]5NC(=O)[C@@H]4CCCN4C(=O)[C@@H](NC(=O)[C@H](C)NC)C4CCCCC4)cc3)ccc21)C1CCCCC1 [Compound III-L, (2S)-1-[(2S)-2-cyclohexyl-2-[(2S)-2-(methylamino)propanamido]acetyl]-N-[(1R)-6-[4-[(5R)-5-[(2S)-1-[(2S)-2-cyclohexyl-2-[(2S)-2-(methylamino)propanamido]acetyl]pyrolidine-2-amido]-5,6,7,8-tetrahydronaphthalen-2-yl]phenyl]-1,2,3,4-tetrahydronaphthalen-1-yl]pyrrolidine-2-carboxamide]	6.00 to 7.00	7.00 to 8.00	6.00 to 7.00
CN[C@@H](C)C(=O)N[C@@H](C)C(=O)N1CCC[C@H]1C(=O)N[C@@H]1CCCc2c(-c3cccc4c3CCC[C@H]4NC(=O)[C@@H]3CCCN3C(=O)[C@H](C)NC(=O)[C@H](C)NC)cccc21 [Compound V-H, (2S)-1-[(2S)-2-[(2S)-2-(methylamino)propanamido]propanoyl]-N-[(5R,5′R)-5′-[(2S)-1-[(2S)-2-[(2S)-2-(methylamino)propanamido]propanoyl]pyrrolidine-2-amido]-5H,5′H,6H,6′H,7H,7′H,8H,8′H-[1,1′-binaphthalen]-5-yl]pyrrolidine-2-carboxamide]	6.00 to 7.00	8.00 to 9.00	7.00 to 8.00
CC[C@H](NC(=O)[C@H](C)NC)C(=O)N1CCC[C@H]1C(=O)N[C@@H]1CCCc2c(-c3cccc(-c4cccc5c4CCC[C@H]5NC(=O)[C@@H]4CCCN4C(=O)[C@H](CC)NC(=O)[C@H](C)NC)c3)cccc21 [III-D, (2S)-1-[(2S)-2-[(2S)-2-(methylamino)propanamido]butanoyl]-N-[(1R)-5-[3-[(5R)-5-[(2S)-1-[(2S)-2-[(2S)-2-(methylamino)propanamido]butanoyl]pyrrolidine-2-amido]-5,6,7,8-tetrahydronaphthalen-1-yl]phenyl]-1,2,3,4-tetrahydronaphthalen-1-yl]pyrrolidine-2-carboxamide]	7.00 to 8.00	8.00 to 9.00	7.00 to 8.00
CN[C@@H](C)C(=O)N[C@H](C(=O)N1CCC[C@H]1C(=O)N[C@@H]1CCOc2c(-c3cccc4c3OCC[C@H]4NC(=O)[C@@H]3CCCN3C(=O)[C@@H](NC(=O)[C@H](C)NC)C3CCCC3)cccc21)C1CCCC1 [Compound V-F, (2S)-1-[(2S)-2-cyclopentyl-2-[(2S)-2-(methylamino)propanamido]acetyl]-N-[(4R)-8-[(4R)-4-[(2S)-1-[(2S)-2-cyclopentyl-2-[(2S)-2-(methylamino)propanamido]acetyl]pyrrolidine-2-amido]-3,4-dihydro-2H-1-benzopyran-8-yl]-3,4-dihydro-2H-1-benzopyran-4-yl]pyrrolidine-2-carboxamide]	7.00 to 8.00	8.00 to 9.00	7.00 to 8.00

Reference: patent publication US20220220152A1, “BIVALENT ANTAGONISTS OF INHIBITORS OF APOPTOSIS PROTEINS” (Hepagene Therapeutics (HK) Limited, priority 2019, published 2022)
